In brackets after ≈: the same amount, converted by molar mass. Where two headings read alike, the source gives them in different places.
Assays:
[1] = test system: Koi Herpes virus (KHV); experiment: Inhibition of Koi Herpes Virus infections in cell culture (plaque / cytopathic effect, crystal violet); assay type: cell-based, Koi herpesvirus (KHV); details: for IC50: Cyprinid herpesvirus 3, 120 h; for concentration resulting in complete inhibition of KHV replication: KHV in CCB cells, five days post infection; for effect on KHV replication (in words): in vitro
Description: KHV inhibitory activity can be readily detected using the assays described herein, as well as other assays known to those of ordinary skill in the art. In general, carp cells are infected with KHV and are incubated with the compounds to be tested for inhibitory activity. A more detailed description is provided in the examples.
(§1) Compounds for testing KHV-antiviral activity were dissolved in dimethylsulfoxide (DMSO) at a concentration of 20 mg/ml, then filtrated through a 0.45 μm filter to obtain a sterile solution. Common carp brain (CCB) cells were grown in minimum essential medium (MEM, commercially available from Invitrogen) containing 4.5 g/l glucose (D-glucose monohydrate, Merck) and 10% fetal calf serum (FCS, commercially available from BioWhittaker). Cells were incubated at 25° C. in a humid atmosphere containing 5% CO2. Confluent cell monolayers grown in 24 wells cluster dishes were inoculated with 200 plaque forming units (PFU) of KHV in 0.2 ml of serum free Dulbecco's Modified Eagle Medium (DMEM, commercially available from Invitrogen). […] Five days post infection (pi), viral plaques or virus induced cytopathic effects were observed by staining cells with a crystal violet (Merck) solution.
as §1, with “Alternatively, PMEDAP was” for “Compounds for testing KHV-antiviral activity were”, “DMEM and propyleneglycol (33.3%)/ethanol(8.3%) (PE buffer) respectively,” for “dimethylsulfoxide (DMSO)”, “10 mg/ml.” for “20 mg/ml, then filtrated through a 0.45 μm filter to obtain a sterile solution.”, “modified eagle medium” for “Modified Eagle Medium”

[2] = test system: koi carps; experiment: In vivo koi carps toxicity experiment, intraperitoneal injection; design: species or system koi carps (Cyprinus carpio koi); details: 50 mg/kg intraperitoneal, 10 consecutive days
Description: Naïve adult koi carps were kept in 150-liter tanks with filtrated water maintained at 23° C. One group (n=12) was treated for 10 consecutive days, by intraperitoneal injection of PMEDAP (50 mg/kg) dissolved in 0.2 ml of DMEM. The other group (n=12), used as negative control, was injected with 0.2 ml DMEM. After 10 days, all fish were examined and weighed. Three fishes of each group were euthanized. Liver and kidney explants were treated for anatomopathology analysis.

[3] = test system: koi carps; experiment: In vivo koi carps toxicity experiment, intramuscular injection; design: species or system koi carps (Cyprinus carpio koi); details: for Microscopic lesions: liver and kidney explants
Description: An additional experiment was performed as following: Naive adult koi carps were kept in 60-liter tanks with filtrated water maintained at 23° C. […] (5 koi per group) were treated for 10 consecutive days, by intramuscular injection of 20 mg/kg PMEDAP ((“PMEDAP 20”) or 50 mg/kg PMEDAP (“PMEDAP 50”)) dissolved in 0.1 ml of DMEM. Two other groups (5 koi per group), used as negative controls, were injected with 0.1 ml of DMEM. After 10 days, all fish were examined and weighed. Three fishes of each group were euthanized. Liver and kidney explants were treated for anatomopathology analysis.

[4] = test system: Koi Herpes virus (KHV); experiment: Pulse chase treatment with PMEDAP on KHV growth in vitro; assay type: cell-based, Koi herpesvirus (KHV); details: 50 μg/ml PMEDAP for only the first 24 hours post infection, CCB cells, observed 5 days post-infection
Description: PMEDAP was dissolved in DMSO at a concentration of 20 mg/ml then filtrated through a 0.45 μm filter. CCB cells were grown in 24-well culture plates in MEM containing 4.5 g/l glucose and 10% FCS. Cells were inoculated with 200 PFU of KHV in 0.2 ml of serum free DMEM. After 2 hours incubation, cells were overlaid with DMEM (4.5 g/l glucose, 10% FCS) containing 50 μg/ml of PMEDAP. Mock-infected cells and untreated infected cells (ND) were included as negative controls. At successive intervals pi, cells were washed twice with PBS then overlaid with complete DMEM. Five days pi, viral plaques were observed by a crystal violet assay.

[5] = test system: KHV infections; details: Ilouze et al., FEBS Letters (2006) 580(18) 4473-4478; cited from earlier work
[6] = KHV (200 PFU) in CCB cells, compounds dissolved in DMSO, read five days post infection, read-out: IC50
[7] = 20 mg/kg intramuscular, 10 consecutive days (PMEDAP 20)
[8] = 50 mg/kg intramuscular, 10 consecutive days (PMEDAP 50)

Nc1nc(N)c2ncn(CCOCP(=O)(O)O)c2n1 [PMEDAP, 9-(2-phosphonylmethoxyethyl)-2,6-diaminopurine]
IC50 [1, 6]: 4.8 µg/mL (≈ 16.7 µM)
concentration resulting in complete inhibition of KHV replication [1]: 12.5 µg/mL
effect on KHV replication (in words) [1]: highly active
Clinical signs [2]: None
Survival (%) [2]: 100%
mean weight of fishes, PMEDAP versus DMEM [2]: statistically similar
toxic effect (in words) [2]: did not reveal any toxic effect
Microscopic lesions ([2]; liver and kidney explants): None
Mean final weight ([2]; mean initial weight 66.1 g): 71.5 g
Clinical signs [3, 7]: None
Survival (%) [3, 7]: 100%
Microscopic lesions [3, 7]: None
Mean final weight ([3]; 20 mg/kg intramuscular, 10 consecutive days (PMEDAP 20), mean initial weight 23.1 g): 21.3 g
Clinical signs [3, 8]: None
Survival (%) [3, 8]: 100%
Microscopic lesions [3, 8]: None
Mean final weight ([3]; 50 mg/kg intramuscular, 10 consecutive days (PMEDAP 50), mean initial weight 16.3 g): 15.3 g
inhibition of virus induced cytopathic effect [4]: complete inhibition

Nc1nc2c(ncn2COCCO)c(=O)[nH]1 [acyclovir]
effect on KHV replication (in words) [1]: no effect or a very limited effect
activity against KHV infections (in words) [5]: inactive

O=C(O)P(=O)(O)O [PFA (foscarnet), foscarnet]
IC50 [1, 6]: > 100 µg/mL

Nc1ccn(C[C@@H](CO)OCP(=O)(O)O)c(=O)n1 [HPMPC, cidofovir]
IC50 [1, 6]: 50 µg/mL (≈ 179 µM)
effect on KHV replication (in words) [1]: no effect or a very limited effect

O=c1[nH]c(=O)n([C@H]2C[C@H](O)[C@@H](CO)O2)cc1/C=C/Br [BVDU (brivudin), brivudin]
IC50 [1]: 100 µg/mL (≈ 300 µM)
effect on KHV replication (in words) [1]: no effect or a very limited effect

Nc1nc(O)c2ncn(COC(CO)CO)c2n1 [GCV (ganciclovir), ganciclovir]
IC50 [1, 6]: 100 µg/mL (≈ 392 µM)
effect on KHV replication (in words) [1]: no effect or a very limited effect

Nc1ncnc2c1ncn2CCOCP(=O)(O)O [PMEA (adefovir), 9-[2-phosphonylmethoxyethyl]adenine]
IC50 [1, 6]: 6.5 µg/mL (≈ 23.8 µM)
concentration resulting in complete inhibition of KHV replication [1]: 25 µg/mL

Reference: US20100137240A1, “USE OF NUCLEOSIDE DERIVATIVES AS ANTI-KOI HERPES VIRUS IN FISH” (Katholieke Universiteit Leuven, priority 2007, published 2010)
